From publication PMC4072508, “Genome-Wide Prediction and Validation of Peptides That Bind Human Prosurvival Bcl-2 Proteins” (PLoS Computational Biology, 2014)
Where two headings read alike, the source gives them in different places. No end group written: not given here.

Key:
[1] = biological target: T1, Mcl-1 (Homo sapiens, UniProt Q07820); settings: read-out: Binder class, Mcl-1; S1 Bim variants, specific binding measured using yeast display; ref Dutta et al. (2010); cited from earlier work
T1 construct: myc-Mcl-1 SPOT array & FP; made in house
T1 sequence (Q07820 with tags, fused parts or gaps): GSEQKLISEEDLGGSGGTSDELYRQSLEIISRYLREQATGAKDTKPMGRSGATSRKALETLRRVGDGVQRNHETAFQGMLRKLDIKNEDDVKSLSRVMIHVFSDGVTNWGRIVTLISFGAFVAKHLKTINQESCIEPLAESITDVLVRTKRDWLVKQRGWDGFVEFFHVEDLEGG
Description: Negative control mutatio ...

[2] = biological target: T2, Bcl-xL (Homo sapiens, UniProt Q07817); settings: S1 Bim variants, specific binding measured using yeast display; ref Dutta et al. (2010); cited from earlier work
T2 construct: myc-Bcl-xL SPOT array & FP; made in house
T2 sequence (Q07817 with tags, fused parts or gaps): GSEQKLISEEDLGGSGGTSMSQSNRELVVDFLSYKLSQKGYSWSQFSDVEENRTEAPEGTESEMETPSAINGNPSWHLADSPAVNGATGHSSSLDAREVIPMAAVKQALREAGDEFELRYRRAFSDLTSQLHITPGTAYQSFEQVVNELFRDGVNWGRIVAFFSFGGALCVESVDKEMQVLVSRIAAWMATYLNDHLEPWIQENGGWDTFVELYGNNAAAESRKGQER

[3] = biological target: T3, Bfl-1 (Homo sapiens, UniProt Q16548); assay: Fluorescence polarization direct binding
T3 construct: myc- Bfl-1 SPOT array & FP; made in house
T3 sequence (Q16548 with tags, fused parts or gaps): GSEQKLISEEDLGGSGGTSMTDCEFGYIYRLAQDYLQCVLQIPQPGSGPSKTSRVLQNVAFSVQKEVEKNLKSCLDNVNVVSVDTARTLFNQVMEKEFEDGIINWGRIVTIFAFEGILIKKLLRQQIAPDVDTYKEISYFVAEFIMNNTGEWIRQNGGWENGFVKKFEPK
Protocol: (§1) Peptides were purified by reverse-phase HPLC using a C18 column and a linear water/acetonitrile gradient. We re-analyzed the purified peptide by mass spectrometry if there was not a single well-defined peak in HPLC chromatogram.
(§2) Fluorescence polarization (FP) assays were done at 25°C in assay buffer (20 mM NaPO4, 50 mM NaCl, 1 mM EDTA, 0.001% Triton X (v/v), pH 7.8). […] For all FP experiments, the total well volume was 120 µl. […] Anisotropy was measured using a Spectramax M5 plate reader from Molecular Devices.
(§3) Direct binding curves were fit using Pylab/Scipy/Optimize to a single-site binding model utilized previously.
(§4) ^1Best-fit KD values determined by combining all replicate titration curves and fitting to a direct binding model (see Methods). […] Values with an X followed by a number indicate the highest concentration (the number, in nM) for which signal was measured yet no binding was detected.

[4] = biological target: T4, Bcl-w (Homo sapiens, UniProt Q92843, Q133R); assay: Fluorescence polarization direct binding
T4 construct: myc-Bcl-w SPOT array & FP; made in house
T4 sequence (Q92843 with tags, fused parts or gaps Q133R): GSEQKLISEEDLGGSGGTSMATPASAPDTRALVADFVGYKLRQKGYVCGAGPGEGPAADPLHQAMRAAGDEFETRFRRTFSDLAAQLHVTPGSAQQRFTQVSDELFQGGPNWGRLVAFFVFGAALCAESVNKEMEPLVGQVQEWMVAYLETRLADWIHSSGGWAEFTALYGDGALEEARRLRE
Protocol: as §1, §2, §3, §4

[5] = biological target: T1, Mcl-1; assay: Fluorescence polarization direct binding
Protocol: as §1, §2, §3, §4

[6] = biological target: T5, Bcl-2 (Homo sapiens, UniProt P10415, DEL53-91); assay: Fluorescence polarization direct binding
T5 construct: myc- Bcl-2 FP; made in house
T5 sequence (P10415 with tags, fused parts or gaps DEL53-91): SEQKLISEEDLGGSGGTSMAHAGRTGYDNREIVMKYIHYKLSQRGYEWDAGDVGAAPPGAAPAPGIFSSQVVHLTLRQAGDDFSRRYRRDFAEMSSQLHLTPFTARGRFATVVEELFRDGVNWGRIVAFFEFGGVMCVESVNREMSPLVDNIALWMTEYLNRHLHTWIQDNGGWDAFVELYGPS
Protocol: as §1, §2, §3, §4

[7] = biological target: T2, Bcl-xL; assay: Fluorescence polarization direct binding
Protocol: as §1, §2, §3, §4

[8] = FP direct binding, 10 nM FAM-labeled peptide, receptor titrated, 25°C, pH 7.8, fit of all replicate titrations, X+number in a cell = highest concentration (nM) measured with no binding detected, given here as >, SPNS1 fit to raw fluorescence, read-out: Best-fit KD, Bfl-1
[9] = benchmark classification of peptides newly characterized in this study, read-out: Binder class, Bfl-1
[10] = FP direct binding, 10 nM FAM-labeled peptide, receptor titrated, 25°C, pH 7.8, fit of all replicate titrations, X+number in a cell = highest concentration (nM) measured with no binding detected, given here as >, SPNS1 fit to raw fluorescence, read-out: Best-fit KD, Bcl-w
[11] = benchmark classification of peptides newly characterized in this study, read-out: Binder class, Bcl-w
[12] = Binder class, Mcl-1, benchmark classification of peptides newly characterized in this study
[13] = FP direct binding, 10 nM FAM-labeled peptide, receptor titrated, 25°C, pH 7.8, fit of all replicate titrations, X+number in a cell = highest concentration (nM) measured with no binding detected, given here as >, SPNS1 fit to raw fluorescence
[14] = FP direct binding, 10 nM FAM-labeled peptide, receptor titrated, 25°C, pH 7.8, fit of all replicate titrations, X+number in a cell = highest concentration (nM) measured with no binding detected, given here as >, SPNS1 fit to raw fluorescence, read-out: Best-fit KD, Bcl-2
[15] = benchmark classification of peptides newly characterized in this study, read-out: Binder class, Bcl-2
[16] = FP direct binding, 10 nM FAM-labeled peptide, receptor titrated, 25°C, pH 7.8, fit of all replicate titrations, X+number in a cell = highest concentration (nM) measured with no binding detected, given here as >, SPNS1 fit to raw fluorescence, read-out: Best-fit KD, Bcl-xL
[17] = benchmark classification of peptides newly characterized in this study, read-out: Binder class, Bcl-xL

Kd [3, 8] [nM] | Kd [3, 9] [nM] | Kd [4, 10] [nM] | Kd [4, 11] [nM] | Kd [5, 12] [nM] | Kd [5, 13] [nM] | Kd [6, 14] [nM] | Kd [6, 15] [nM] | Kd [7, 16] [nM] | Kd [7, 17] [nM] | Substance | Kd [1] [nM] | Binder class (Kd bin) [2] [nM] | also measured
– | – | – | – | – | – | – | – | – | – | PEIWVAQELERIGEEVNAYYARR | < 1000 | > 10000 | –
– | – | – | – | – | – | – | – | – | – | PEIWVAQELGRDGDEFNAYYARR | > 10000 | < 1000 | –
– | – | – | – | – | – | – | – | – | – | PEIWVAQELGRNGDEYNAYYARR | > 10000 | < 1000 | –
– | – | – | – | – | – | – | – | – | – | PEIWVAQELGRTGDEVNAYYARR | < 1000 | > 10000 | –
– | – | – | – | – | – | – | – | – | – | PEIWVAQELKRAGEEFNAYYARR | > 10000 | < 1000 | –
– | – | – | – | – | – | – | – | – | – | PEIWVAQELKRNGDEFNAYYARR | > 10000 | < 1000 | –
> 9610 | > 10000 | 1920 | 1000 to 10000 | > 10000 | > 4000 | 7130 | 1000 to 10000 | > 5720 | > 10000 | PILENPEILRKTADDFLNRIALT-NH2 [CCH] | – | – | –
> 3370 | > 10000 | > 4350 | > 10000 | > 10000 | 3850 | > 3050 | 1000 to 10000 | > 7000 | > 10000 | QRKHEGFERDLAALGDKVNSLGETAE-NH2 [SPTAN1] | – | – | –
> 2280 | > 10000 | 98 | < 1000 | > 10000 | > 10000 | 98 | < 1000 | 39 | < 1000 | RSMVFARHLREVGDEFRSRHLNS-NH2 [POFUT2] | – | – | Best-fit KD, Bcl-w [4, 13]: bound tightly; Best-fit KD, Bcl-2 [6, 13]: bound tightly; Best-fit KD, Bcl-xL [7, 13]: bound tightly
1900 | 1000 to 10000 | 2490 | < 1000 | > 10000 | 592 | 124 | < 1000 | 679 | < 1000 | RVEQMAIQIKEVGDRVNYIKRSL-NH2 [TRPM7] | – | – | –
> 5680 | > 10000 | 1400 | > 10000 | > 10000 | 977 | 1500 | < 1000 | 650 | < 1000 | RYRHGAPAEQLRHLADMLTTKWATLQ-NH2 [PLEKHH1] | – | – | –
4680 | 1000 to 10000 | 3610 | < 1000 | > 10000 | 912 | 2990 | 1000 to 10000 | 2540 | 1000 to 10000 | SKFVILSAHKLVFIGDTLSRQAKAAD-NH2 [BCAR1] | – | – | –
278 | < 1000 | 871 | < 1000 | < 1000 | 19 | 28 | < 1000 | 96 | < 1000 | SYMVLAPVFGYLGDRYNRKYLMA-NH2 [SPNS1] | – | – | –
> 4070 | > 10000 | > 6560 | > 10000 | < 1000 | 22 | > 3050 | > 10000 | > 4000 | > 10000 | THEEVVHLLRNAGDEVTITVEYL-NH2 [SNTG2] | – | – | Best-fit KD, Mcl-1 [5, 13]: bound tightly

Substance | Kd [3, 8] [nM] | Kd [3, 9] [nM] | Kd [4, 10] [nM] | Kd [4, 11] [nM] | Kd [5, 12] [nM] | Kd [5, 13] [nM] | Kd [6, 14] [nM] | Kd [6, 15] [nM] | Kd [7, 16] [nM] | Kd [7, 17] [nM] | Kd [1] [nM] | Binder class (Kd bin) [2] [nM] | also measured
RLVQQSKALKELADELQERAQRP-NH2 [TRIM58] | – | – | – | – | > 10000 | – | – | – | – | – | – | – | Kd [3]: > 4670 nM; Kd ([3]; Binder class, Bfl-1, benchmark classification of peptides newly characterized in this study): > 10000 nM; Kd [4]: 361 nM; Kd ([4]; Binder class, Bcl-w, benchmark classification of peptides newly characterized in this study): > 10000 nM; Kd [5]: > 6070 nM; Kd [6]: 975 nM; Kd ([6]; Binder class, Bcl-2, benchmark classification of peptides newly characterized in this study): < 1000 nM; Kd [7]: 4550 nM; Kd ([7]; Binder class, Bcl-xL, benchmark classification of peptides newly characterized in this study): 1000 to 10000 nM
